Assay results from the kinase profiling compilation of Christmann-Franck et al. (2016).

How the values were obtained:
Assay in all cases: radiometric filter-binding kinase assay, Kinase HotSpot
Settings in all cases: compound 0.5 µM; ATP 10 µM
ACVRL1 (human) = ACVRL1 (human) (UniProt P37023)
CAMK2B (human) = CAMK2B (human) (UniProt Q13554)
CAMKK2 (human) = CAMKK2 (human) (UniProt Q96RR4)
CHUK (human) = CHUK (human) (UniProt O15111)
CSNK1E (human) = CSNK1E (human) (UniProt P49674)
CSNK1G1 (human) = CSNK1G1 (human) (UniProt Q9HCP0)
DAPK3 (human) = DAPK3 (human) (UniProt O43293)
EGFR (human) = EGFR (human) (UniProt P00533)
EPHA2 (human) = EPHA2 (human) (UniProt P29317)
EPHB2 (human) = EPHB2 (human) (UniProt P29323)
ERBB2 (human) = ERBB2 (human) (UniProt P04626)
FER (human) = FER (human) (UniProt P16591)
GRK6 (human) = GRK6 (human) (UniProt P43250)
GSK3A (human) = GSK3A (human) (UniProt P49840)
INSRR (human) = INSRR (human) (UniProt P14616)
IRAK1 (human) = IRAK1 (human) (UniProt P51617)
[1] = tested on: MAP2K6 (human), P52564 [S207E/T211E]
MAP3K2 (human) = MAP3K2 (human) (UniProt Q9Y2U5)
MAP3K7 TAB1 (human) = MAP3K7 TAB1 (human) (UniProt O43318+Q15750)
MAPK13 (human) = MAPK13 (human) (UniProt O15264)
MERTK (human) = MERTK (human) (UniProt Q12866)
MLTK (human) = MLTK (human) (UniProt Q9NYL2)
MYLK2 (human) = MYLK2 (human) (UniProt Q9H1R3)
NEK1 (human) = NEK1 (human) (UniProt Q96PY6)
NLK (human) = NLK (human) (UniProt Q9UBE8)
NTRK1 (human) = NTRK1 (human) (UniProt P04629)
PAK3 (human) = PAK3 (human) (UniProt O75914)
PAK6 (human) = PAK6 (human) (UniProt Q9NQU5)
PDGFRB (human) = PDGFRB (human) (UniProt P09619)
PLK3 (human) = PLK3 (human) (UniProt Q9H4B4)
PRKCG (human) = PRKCG (human) (UniProt P05129)
PRKD2 (human) = PRKD2 (human) (UniProt Q9BZL6)
PTK2 (human) = PTK2 (human) (UniProt Q05397)
PTK2B (human) = PTK2B (human) (UniProt Q14289)
RPS6KA4 KD2 (human) = RPS6KA4 KD2 (human) (UniProt O75676)
RPS6KA6 KD1 KD2 (human) = RPS6KA6 KD1 KD2 (human) (UniProt Q9UK32)
SRPK1 (human) = SRPK1 (human) (UniProt Q96SB4)
SRPK3 (human) = SRPK3 (human) (UniProt Q9UPE1)
STK25 (human) = STK25 (human) (UniProt O00506)
STK33 (human) = STK33 (human) (UniProt Q9BYT3)
STK4 (human) = STK4 (human) (UniProt Q13043)
TSSK1B (human) = TSSK1B (human) (UniProt Q9BXA7)

Chain of GRK6 (human) (P43250 whole entry, looked up): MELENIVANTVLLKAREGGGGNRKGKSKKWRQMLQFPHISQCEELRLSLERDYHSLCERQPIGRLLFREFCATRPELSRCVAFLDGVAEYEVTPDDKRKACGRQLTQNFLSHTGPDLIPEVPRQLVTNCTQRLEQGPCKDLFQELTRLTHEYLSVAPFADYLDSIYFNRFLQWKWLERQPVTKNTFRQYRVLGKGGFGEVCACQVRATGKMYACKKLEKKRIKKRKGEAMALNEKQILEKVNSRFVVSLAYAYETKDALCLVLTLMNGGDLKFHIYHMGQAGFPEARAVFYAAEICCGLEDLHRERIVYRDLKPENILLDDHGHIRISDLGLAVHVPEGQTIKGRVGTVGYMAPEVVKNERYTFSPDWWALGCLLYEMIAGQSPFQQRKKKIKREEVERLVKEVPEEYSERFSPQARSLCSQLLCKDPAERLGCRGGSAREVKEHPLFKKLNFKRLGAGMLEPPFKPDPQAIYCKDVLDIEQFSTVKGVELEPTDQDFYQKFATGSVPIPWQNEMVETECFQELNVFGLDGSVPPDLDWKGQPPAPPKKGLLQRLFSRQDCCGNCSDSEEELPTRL
Chain of NEK1 (human) (Q96PY6 whole entry, looked up): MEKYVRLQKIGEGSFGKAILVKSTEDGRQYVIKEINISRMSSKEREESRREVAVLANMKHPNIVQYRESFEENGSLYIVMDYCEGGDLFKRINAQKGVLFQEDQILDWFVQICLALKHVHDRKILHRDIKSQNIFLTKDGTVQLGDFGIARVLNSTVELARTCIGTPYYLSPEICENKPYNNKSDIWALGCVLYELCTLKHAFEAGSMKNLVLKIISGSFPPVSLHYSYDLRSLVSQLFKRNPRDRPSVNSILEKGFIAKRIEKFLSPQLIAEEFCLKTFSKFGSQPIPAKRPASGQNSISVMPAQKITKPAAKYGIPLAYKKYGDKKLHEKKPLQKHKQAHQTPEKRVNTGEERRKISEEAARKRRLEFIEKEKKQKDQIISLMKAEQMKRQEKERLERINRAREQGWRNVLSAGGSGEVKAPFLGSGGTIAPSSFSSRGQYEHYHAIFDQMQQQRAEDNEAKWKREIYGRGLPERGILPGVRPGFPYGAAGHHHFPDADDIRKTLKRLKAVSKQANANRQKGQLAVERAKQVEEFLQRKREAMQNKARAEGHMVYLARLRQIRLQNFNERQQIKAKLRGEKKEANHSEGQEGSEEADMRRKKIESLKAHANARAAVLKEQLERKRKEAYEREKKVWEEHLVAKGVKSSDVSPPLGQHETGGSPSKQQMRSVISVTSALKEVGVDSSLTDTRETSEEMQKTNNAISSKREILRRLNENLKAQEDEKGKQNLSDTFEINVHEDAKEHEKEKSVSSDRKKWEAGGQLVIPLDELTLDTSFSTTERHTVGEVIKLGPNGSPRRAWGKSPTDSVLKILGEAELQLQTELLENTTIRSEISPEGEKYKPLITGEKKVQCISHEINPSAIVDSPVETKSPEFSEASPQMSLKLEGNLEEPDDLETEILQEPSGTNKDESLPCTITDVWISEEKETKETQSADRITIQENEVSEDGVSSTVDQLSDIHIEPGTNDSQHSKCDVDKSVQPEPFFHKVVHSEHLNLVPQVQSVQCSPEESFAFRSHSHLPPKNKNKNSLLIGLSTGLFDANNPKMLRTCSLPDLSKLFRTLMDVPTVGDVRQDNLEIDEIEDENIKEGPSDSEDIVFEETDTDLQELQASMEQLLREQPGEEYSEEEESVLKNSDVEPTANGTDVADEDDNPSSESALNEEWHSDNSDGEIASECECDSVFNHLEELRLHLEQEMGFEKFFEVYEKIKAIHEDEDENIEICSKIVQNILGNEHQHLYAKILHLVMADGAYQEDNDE
Chain of STK25 (human) (O00506 whole entry, looked up): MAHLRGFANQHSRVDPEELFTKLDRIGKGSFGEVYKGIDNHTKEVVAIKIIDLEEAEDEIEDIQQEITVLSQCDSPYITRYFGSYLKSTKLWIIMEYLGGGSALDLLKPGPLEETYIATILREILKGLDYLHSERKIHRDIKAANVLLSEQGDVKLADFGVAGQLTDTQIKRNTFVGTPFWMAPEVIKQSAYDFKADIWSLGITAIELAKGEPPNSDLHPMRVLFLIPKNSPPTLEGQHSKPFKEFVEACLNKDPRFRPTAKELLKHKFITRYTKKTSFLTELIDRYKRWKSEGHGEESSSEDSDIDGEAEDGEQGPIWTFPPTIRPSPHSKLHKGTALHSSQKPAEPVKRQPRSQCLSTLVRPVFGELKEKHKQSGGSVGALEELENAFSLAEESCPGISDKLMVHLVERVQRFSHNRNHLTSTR
Chain of PTK2B (human) (Q14289 whole entry, looked up): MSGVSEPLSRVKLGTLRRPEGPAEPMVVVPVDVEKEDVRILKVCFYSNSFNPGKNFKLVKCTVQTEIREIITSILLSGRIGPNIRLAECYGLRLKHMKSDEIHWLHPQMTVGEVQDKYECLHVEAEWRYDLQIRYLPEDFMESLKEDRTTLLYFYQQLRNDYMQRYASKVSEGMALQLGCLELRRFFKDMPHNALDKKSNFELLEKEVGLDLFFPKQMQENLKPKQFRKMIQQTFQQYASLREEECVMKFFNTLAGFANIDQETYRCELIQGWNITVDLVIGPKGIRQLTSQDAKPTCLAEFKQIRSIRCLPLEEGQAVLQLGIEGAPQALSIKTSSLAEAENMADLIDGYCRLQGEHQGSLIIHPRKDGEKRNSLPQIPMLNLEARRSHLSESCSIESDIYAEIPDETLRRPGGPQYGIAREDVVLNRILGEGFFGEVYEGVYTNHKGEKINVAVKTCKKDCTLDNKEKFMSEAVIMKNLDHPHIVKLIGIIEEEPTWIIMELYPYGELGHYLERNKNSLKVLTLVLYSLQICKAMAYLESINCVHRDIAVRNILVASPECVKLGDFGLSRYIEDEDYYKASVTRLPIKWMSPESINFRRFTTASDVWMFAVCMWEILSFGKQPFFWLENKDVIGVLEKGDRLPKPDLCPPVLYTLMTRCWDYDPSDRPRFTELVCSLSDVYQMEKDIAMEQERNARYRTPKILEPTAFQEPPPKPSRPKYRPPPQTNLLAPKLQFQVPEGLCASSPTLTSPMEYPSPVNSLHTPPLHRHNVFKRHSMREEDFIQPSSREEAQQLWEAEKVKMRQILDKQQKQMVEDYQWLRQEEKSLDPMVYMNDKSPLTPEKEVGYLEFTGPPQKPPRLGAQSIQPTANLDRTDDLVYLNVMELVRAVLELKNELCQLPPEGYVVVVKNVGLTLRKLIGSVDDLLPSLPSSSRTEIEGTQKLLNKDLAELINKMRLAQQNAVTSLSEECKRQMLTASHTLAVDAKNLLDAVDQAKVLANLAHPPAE
Chain of ACVRL1 (human) (P37023 whole entry, looked up): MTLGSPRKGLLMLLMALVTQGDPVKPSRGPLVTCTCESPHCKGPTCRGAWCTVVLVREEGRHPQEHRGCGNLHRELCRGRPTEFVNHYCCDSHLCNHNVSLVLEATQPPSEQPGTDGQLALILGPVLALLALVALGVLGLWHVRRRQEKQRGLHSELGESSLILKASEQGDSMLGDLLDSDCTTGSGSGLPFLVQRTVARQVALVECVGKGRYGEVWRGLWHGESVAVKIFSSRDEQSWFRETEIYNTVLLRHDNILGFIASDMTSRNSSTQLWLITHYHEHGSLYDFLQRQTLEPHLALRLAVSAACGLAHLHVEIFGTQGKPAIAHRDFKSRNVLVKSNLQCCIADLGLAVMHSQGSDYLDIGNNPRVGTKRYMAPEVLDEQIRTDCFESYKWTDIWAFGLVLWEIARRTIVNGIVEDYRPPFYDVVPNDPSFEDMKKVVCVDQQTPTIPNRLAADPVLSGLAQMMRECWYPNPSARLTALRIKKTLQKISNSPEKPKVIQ
Chain of SRPK3 (human) (Q9UPE1 whole entry, looked up): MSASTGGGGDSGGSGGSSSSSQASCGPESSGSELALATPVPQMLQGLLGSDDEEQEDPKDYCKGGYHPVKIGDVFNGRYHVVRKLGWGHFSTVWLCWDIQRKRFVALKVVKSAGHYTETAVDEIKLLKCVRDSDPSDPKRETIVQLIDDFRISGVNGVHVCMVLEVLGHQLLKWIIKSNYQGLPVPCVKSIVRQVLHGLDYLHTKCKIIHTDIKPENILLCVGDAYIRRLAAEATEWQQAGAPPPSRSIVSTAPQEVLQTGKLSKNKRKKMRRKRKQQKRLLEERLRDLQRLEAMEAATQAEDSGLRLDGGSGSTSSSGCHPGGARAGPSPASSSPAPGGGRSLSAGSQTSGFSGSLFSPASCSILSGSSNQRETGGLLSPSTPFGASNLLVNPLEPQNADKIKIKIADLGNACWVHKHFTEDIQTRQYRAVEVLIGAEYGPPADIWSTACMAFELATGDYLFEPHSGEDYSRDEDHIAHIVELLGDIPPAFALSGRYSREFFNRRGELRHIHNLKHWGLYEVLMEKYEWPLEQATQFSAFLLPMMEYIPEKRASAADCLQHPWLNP

COc1ccc(S(=O)(=O)N(CCO)c2ccccc2CN(C)C/C=C/c2ccc(Cl)cc2)cc1
residual activity (ACVRL1 (human)): 98.4% | residual activity (CAMK2B (human)): 100% | residual activity (CAMKK2 (human)): 90.7% | residual activity (CHUK (human)): 92.7% | residual activity (CSNK1E (human)): 105% | residual activity (CSNK1G1 (human)): 105% | residual activity (DAPK3 (human)): 101% | residual activity (EGFR (human)): 106% | residual activity (EPHA2 (human)): 104% | residual activity (EPHB2 (human)): 97.7% | residual activity (ERBB2 (human)): 97.8% | residual activity (FER (human)): 97.1% | residual activity (GRK6 (human)): 106% | residual activity (GSK3A (human)): 99.9% | residual activity (INSRR (human)): 97% | residual activity (IRAK1 (human)): 98% | residual activity [1]: 108% | residual activity (MAP3K2 (human)): 95.3% | residual activity (MAP3K7 TAB1 (human)): 94.7% | residual activity (MAPK13 (human)): 102% | residual activity (MERTK (human)): 97% | residual activity (MLTK (human)): 97% | residual activity (MYLK2 (human)): 97.8% | residual activity (NEK1 (human)): 104% | residual activity (NLK (human)): 101% | residual activity (NTRK1 (human)): 110% | residual activity (PAK3 (human)): 102% | residual activity (PAK6 (human)): 101% | residual activity (PDGFRB (human)): 104% | residual activity (PLK3 (human)): 99.4% | residual activity (PRKCG (human)): 95.1% | residual activity (PRKD2 (human)): 99.8% | residual activity (PTK2 (human)): 104% | residual activity (PTK2B (human)): 106% | residual activity (RPS6KA4 KD2 (human)): 107% | residual activity (RPS6KA6 KD1 KD2 (human)): 102% | residual activity (SRPK1 (human)): 105% | residual activity (SRPK3 (human)): 97.3% | residual activity (STK25 (human)): 99.6% | residual activity (STK33 (human)): 97.3% | residual activity (STK4 (human)): 94.2% | residual activity (TSSK1B (human)): 103%

CC(C)(C)c1cc(C=C(C#N)C#N)cc(Br)c1O
residual activity (ACVRL1 (human)): 105% | residual activity (CAMK2B (human)): 99.3% | residual activity (CAMKK2 (human)): 92.5% | residual activity (CHUK (human)): 89.7% | residual activity (CSNK1E (human)): 92.1% | residual activity (CSNK1G1 (human)): 106% | residual activity (DAPK3 (human)): 96.4% | residual activity (EGFR (human)): 106% | residual activity (EPHA2 (human)): 105% | residual activity (EPHB2 (human)): 100% | residual activity (ERBB2 (human)): 95.7% | residual activity (FER (human)): 100% | residual activity (GRK6 (human)): 94.6% | residual activity (GSK3A (human)): 104% | residual activity (INSRR (human)): 103% | residual activity (IRAK1 (human)): 105% | residual activity [1]: 107% | residual activity (MAP3K2 (human)): 93.7% | residual activity (MAP3K7 TAB1 (human)): 87.9% | residual activity (MAPK13 (human)): 98.5% | residual activity (MERTK (human)): 97.3% | residual activity (MLTK (human)): 91.2% | residual activity (MYLK2 (human)): 99.3% | residual activity (NEK1 (human)): 97.7% | residual activity (NLK (human)): 93.6% | residual activity (NTRK1 (human)): 100% | residual activity (PAK3 (human)): 96.9% | residual activity (PAK6 (human)): 101% | residual activity (PDGFRB (human)): 104% | residual activity (PLK3 (human)): 94.6% | residual activity (PRKCG (human)): 90.4% | residual activity (PRKD2 (human)): 108% | residual activity (PTK2 (human)): 107% | residual activity (PTK2B (human)): 99.3% | residual activity (RPS6KA4 KD2 (human)): 90.9% | residual activity (RPS6KA6 KD1 KD2 (human)): 101% | residual activity (SRPK1 (human)): 101% | residual activity (SRPK3 (human)): 79.4% | residual activity (STK25 (human)): 102% | residual activity (STK33 (human)): 91.1% | residual activity (STK4 (human)): 90.5% | residual activity (TSSK1B (human)): 95.6%

O=C1C(Cl)=C(N2C(=O)CCC2=O)C(=O)c2ccccc21
residual activity (ACVRL1 (human)): 105% | residual activity (CAMK2B (human)): 106% | residual activity (CAMKK2 (human)): 86.1% | residual activity (CHUK (human)): 101% | residual activity (CSNK1E (human)): 102% | residual activity (CSNK1G1 (human)): 147% | residual activity (DAPK3 (human)): 114% | residual activity (EGFR (human)): 98.4% | residual activity (EPHA2 (human)): 107% | residual activity (EPHB2 (human)): 98.7% | residual activity (ERBB2 (human)): 95.4% | residual activity (FER (human)): 103% | residual activity (GRK6 (human)): 98.5% | residual activity (GSK3A (human)): 99.8% | residual activity (INSRR (human)): 96.9% | residual activity (IRAK1 (human)): 101% | residual activity [1]: 107% | residual activity (MAP3K2 (human)): 108% | residual activity (MAP3K7 TAB1 (human)): 99.5% | residual activity (MAPK13 (human)): 106% | residual activity (MERTK (human)): 90.3% | residual activity (MLTK (human)): 97.9% | residual activity (MYLK2 (human)): 98.1% | residual activity (NEK1 (human)): 90% | residual activity (NLK (human)): 105% | residual activity (NTRK1 (human)): 97% | residual activity (PAK3 (human)): 104% | residual activity (PAK6 (human)): 89.6% | residual activity (PDGFRB (human)): 103% | residual activity (PLK3 (human)): 96.6% | residual activity (PRKCG (human)): 97.5% | residual activity (PRKD2 (human)): 95.7% | residual activity (PTK2 (human)): 98.4% | residual activity (PTK2B (human)): 105% | residual activity (RPS6KA4 KD2 (human)): 115% | residual activity (RPS6KA6 KD1 KD2 (human)): 99.9% | residual activity (SRPK1 (human)): 103% | residual activity (SRPK3 (human)): 93.6% | residual activity (STK25 (human)): 107% | residual activity (STK33 (human)): 91.5% | residual activity (STK4 (human)): 89.1% | residual activity (TSSK1B (human)): 104%

NC(=O)c1cccc(-c2cc(Nc3ccc(OC(F)(F)F)cc3)ncn2)c1
residual activity (ACVRL1 (human)): 99.2% | residual activity (CAMK2B (human)): 100% | residual activity (CAMKK2 (human)): 99.1% | residual activity (CHUK (human)): 95% | residual activity (CSNK1E (human)): 103% | residual activity (CSNK1G1 (human)): 97.8% | residual activity (DAPK3 (human)): 99.8% | residual activity (EGFR (human)): 96.6% | residual activity (EPHA2 (human)): 94.9% | residual activity (EPHB2 (human)): 102% | residual activity (ERBB2 (human)): 89.5% | residual activity (FER (human)): 105% | residual activity (GRK6 (human)): 101% | residual activity (GSK3A (human)): 93.9% | residual activity (INSRR (human)): 90.7% | residual activity (IRAK1 (human)): 101% | residual activity [1]: 101% | residual activity (MAP3K2 (human)): 79.5% | residual activity (MAP3K7 TAB1 (human)): 99.1% | residual activity (MAPK13 (human)): 98.1% | residual activity (MERTK (human)): 98.1% | residual activity (MLTK (human)): 102% | residual activity (MYLK2 (human)): 97.1% | residual activity (NEK1 (human)): 89.6% | residual activity (NLK (human)): 93.4% | residual activity (NTRK1 (human)): 96.6% | residual activity (PAK3 (human)): 100% | residual activity (PAK6 (human)): 102% | residual activity (PDGFRB (human)): 94.8% | residual activity (PLK3 (human)): 96.9% | residual activity (PRKCG (human)): 83.6% | residual activity (PRKD2 (human)): 102% | residual activity (PTK2 (human)): 100% | residual activity (PTK2B (human)): 94.6% | residual activity (RPS6KA4 KD2 (human)): 85.8% | residual activity (RPS6KA6 KD1 KD2 (human)): 94.2% | residual activity (SRPK1 (human)): 98% | residual activity (SRPK3 (human)): 94.3% | residual activity (STK25 (human)): 94.5% | residual activity (STK33 (human)): 92.1% | residual activity (STK4 (human)): 88.7% | residual activity (TSSK1B (human)): 95.4%
